Measured values from US4582847A, “4-chloro-2-phenylimidazole-5-acetic acid derivatives and use as diuretics and hypotensives” (Takeda Chemical Industries, Ltd., priority 1983, dated 1986).

Key:
rats = assay: Diuretic action in rats (method of W. L. Lipschitz); type: in vivo; details: rat, 30 mg/kg P.O., n = 6; control group = 1.00
Method: (§1) The test was conducted in rats and dogs, in accordance with the method of W. L. Lipschitz. The numerals in the table denote the values for the treated groups with the value for control group being taken as 1.00. [formula]

dogs = assay: Diuretic action in dogs (method of W. L. Lipschitz); type: in vivo; details: dog, n = 3, control group = 1.00
Method: as §1

[1] = test system: dogs with renal hypertension; assay: Antihypertensive action in dogs with renal hypertension; type: in vivo, beagle dog; details: dose 10 mg, oral; for Diastolic blood pressure after 1 hr. / Systolic blood pressure after 1 hr.: 1 hr after administration; for Diastolic blood pressure after 2 hrs. / Systolic blood pressure after 2 hrs.: 2 hrs after administration; for Diastolic blood pressure after 4 hrs. / Systolic blood pressure after 4 hrs.: 4 hrs after administration; for Diastolic blood pressure after 8 hrs. / Systolic blood pressure after 8 hrs.: 8 hrs after administration; for Diastolic blood pressure before administration / Systolic blood pressure before administration: before administration (baseline)
From the text: Antihypertensive action in dogs with renal hypertension
Male adult beagle dogs were laparotomized under pentobarbital anesthesia and the left renal artery was constricted with a silver clip so as to reduce the renal blood flow to about 30%. After the operation, the animals were kept for at least 2 months and the individuals having a systolic pressure of at least about 180 mmHg were used in the test. […] Blood pressure determinations were made using a plethysmograph (Narco, DE-300). Each drug was sealed in a gelatin capsule and administered by the oral route. The blood pressure was monitored up to 8 hours after administration.

[2] = test system: Angiotensin II (rabbit aortic vessel); assay: Angiotensin II-antagonizing activity (rabbit aortic vessel); details: AII 4×10^-9 M, 15 min treatment
Method: Angiotensin II (briefly, AII)-antagonizing activity of the compound (I) of this invention (rabbit aortic vessel)
The method of preparing the aortic vessel specimens and the reaction conditions employed were as described in European Journal of Pharmacology 18, 316 (1972). AII was used in a concentration of 4×10^-9 M, and the change in isometric tension of the untreated vessel specimen was measured as control. As a test, the vessel was treated with the test compound for 15 minutes and a similar determination was made. The two results were compared and the inhibition rate was calculated by means of the following formula.
Inhibition rate (%) [formula]

SMILES	Diuretic action UK V (rats)	Diuretic action UNa V (rats)	Diuretic action UV (rats)	Diuretic action UK V (dogs; 3 mg/kg P.O.)	Diuretic action UNa V (dogs; 3 mg/kg P.O.)	Diuretic action UV (dogs; 3 mg/kg P.O.)	Diuretic action UK V (dogs; 30 mg/kg P.O.)	Diuretic action UNa V (dogs; 30 mg/kg P.O.)	Diuretic action UV (dogs; 30 mg/kg P.O.)	Diastolic blood pressure after 1 hr. [1]	Systolic blood pressure after 1 hr. [1]	Diastolic blood pressure after 2 hrs. [1]	Systolic blood pressure after 2 hrs. [1]	Diastolic blood pressure after 4 hrs. [1]	Systolic blood pressure after 4 hrs. [1]	Diastolic blood pressure after 8 hrs. [1]	Systolic blood pressure after 8 hrs. [1]	Diastolic blood pressure before administration [1]	Systolic blood pressure before administration [1]	Inhibition rate (%) ([2]; concentration of drug 10^-5 M)	other results
CC(=O)Oc1ccc(Cn2c(-c3ccccc3)nc(Cl)c2CC(=O)O)cc1C [Ref. Example 3, 4-chloro-1-(4-acetoxy-3-methylbenzyl)-2-phenylimidazole-5-acetic acid]	2.92	6.54	8.22																		
CCCC(=O)Oc1ccc(Cn2c(-c3ccccc3)nc(Cl)c2CC(=O)O)cc1C [Ref. Example 4, 4-chloro-1-(4-n-butyryloxy-3-methylbenzyl)-2-phenylimidazole-5-acetic acid]	2.80	5.82	6.69																		
COc1ccc(Cn2c(-c3ccccc3)nc(Cl)c2CC(=O)O)cc1C [4-Chloro-1-(4-methoxy-3-methylbenzyl)-2-phenylimidazole-5-acetic acid, reference compound]	3.33	6.36	8.25	0.86	1.10	1.20	2.53	1.73	1.67	113 ± 6 mmHg	185 ± 5 mmHg	116 ± 7 mmHg	181 ± 6 mmHg	115 ± 4 mmHg	181 ± 2 mmHg	115 ± 5 mmHg	188 ± 5 mmHg	123 ± 6 mmHg	189 ± 2 mmHg		
Cc1cc(Cn2c(-c3ccccc3)nc(Cl)c2CC(=O)O)ccc1O [Example 1, 4-chloro-1-(4-hydroxy-3-methylbenzyl)-2-phenylimidazole-5-acetic acid]				2.20	2.97	3.41	4.88	4.24	5.11	123 ± 4 mmHg	189 ± 5 mmHg	93 ± 7 mmHg	165 ± 6 mmHg	89 ± 7 mmHg	155 ± 8 mmHg	110 ± 8 mmHg	167 ± 8 mmHg	124 ± 2 mmHg	201 ± 5 mmHg	100%	Inhibition rate (%) ([2]; concentration of drug 10^-6 M): 75%
O=C(O)Cc1c(Cl)nc(-c2ccccc2)n1Cc1ccc(O)cc1 [4-Chloro-1-(4-hydroxybenzyl)-2-phenylimidazole-5-acetic acid, reference compound]																				46%	
